Data taken from PMC11875179, “A fucose-binding superlectin from Enterobacter cloacae with high Lewis and ABO blood group antigen specificity” (The Journal of Biological Chemistry, 2024).

Tests used:
[1] = target: T1, Enterobacter cloacae lectin A (EclA) (Enterobacter cloacae, UniProt A0A0H3CQ33); experiment: competitive fluorescence polarization; thermal shift (Tm […] to […] °C); assay type: binding; parameters: gene ECL_04191; full-length EclA and EclA-C (amino acids 140–283)
[2] = target: T1, Enterobacter cloacae lectin A (EclA); experiment: competitive fluorescence polarization displacement of […]; assay type: binding; parameters: gene ECL_04191; full-length EclA and EclA-C (amino acids 140–283)
[3] = target: the molecule itself; experiment: dynamic light scattering; Zetasizer Nano-ZS; 100 uM EclA-L or 200 uM EclA-N-tag and EclA-C in TBS/Ca (20 mM Tris, 137 mM NaCl, 2.6 mM KCl, pH 7.4, 1 mM CaCl2), 25 C; molecular weight estimated from the hydrodynamic radius

T1 sequence (A0A0H3CQ33 entry or part of it): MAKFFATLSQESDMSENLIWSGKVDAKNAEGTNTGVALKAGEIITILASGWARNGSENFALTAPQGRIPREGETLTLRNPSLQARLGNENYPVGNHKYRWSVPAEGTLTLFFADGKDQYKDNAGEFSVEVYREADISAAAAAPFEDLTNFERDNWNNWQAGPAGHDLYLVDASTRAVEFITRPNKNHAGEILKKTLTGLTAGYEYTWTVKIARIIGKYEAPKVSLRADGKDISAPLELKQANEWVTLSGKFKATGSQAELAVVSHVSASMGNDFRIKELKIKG

In the case of `C[C@@H]1OC(O)[C@@H](O)[C@H](O)[C@@H]1O` (stereo partly drawn) [compound 1, L-fucose], the IC50 [1] is reported as 4000 to 4700 µM.

Molecule `CO[C@@H]1O[C@@H](C)[C@@H](O)[C@@H](O)[C@@H]1O` [compound 12, methyl α-L-fucoside] has an IC50 [2] of 1300 to 1400 µM.

`CO[C@H]1O[C@@H](C)[C@@H](O)[C@@H](O)[C@@H]1O` [compound 13, methyl β-L-fucoside] showed an IC50 [2] of 1500 to 1800 µM.

B1: EclA-C, native EclA C terminus (amino acids 140-283) (domain or fragment)
chain: MAAPFEDLTNFERDNWNNWQAGPAGHDLYLVDASTRAVEFITRPNKNHAGEILKKTLTGLTAGYEYTWTVKIARIIGKYEAPKVSLRADGKDISAPLELKQANEWVTLSGKFKATGSQAELAVVSHVSASMGNDFRIKELKIKG
notes: EclA, E. cloacae subsp. cloacae ATCC 13047, stated as amino acids 140-283 (144 aa); Tag-free; a selenomethionine-labelled form was also crystallised; also called C-terminal domain of EclA; source: E. coli BL21(DE3), purified (fucose-coupled sepharose, L-fucose elution)
In the case of B1, the “stoichiometry N” value [3] is reported as 2.

B2: EclA-N-tag, N-terminally His6-tagged EclA N terminus (amino acids 2-140) (domain or fragment)
chain: AKFFATLSQESDASENLIWSGKVDAKNAEGTNTGVALKAGEIITILASGWARNGSENFALTAPQGRIPREGETLTLRNPSLQARLGNENYPVGNHKYRWSVPAEGTLTLFFADGKDQYKDNAGEFSVEVYREADISAAA
notes: EclA, E. cloacae subsp. cloacae ATCC 13047, residues 2-140, based on EclA-L (M14A); also called N-terminal domain of EclA; not shown: His6, N-terminal, kept
In the case of B2, the “stoichiometry N” value [3] is reported as 2.

B3: EclA-L (EclA-M14A), full-length Enterobacter cloacae lectin A with the second start codon mutated (natural protein)
chain: MAKFFATLSQESDASENLIWSGKVDAKNAEGTNTGVALKAGEIITILASGWARNGSENFALTAPQGRIPREGETLTLRNPSLQARLGNENYPVGNHKYRWSVPAEGTLTLFFADGKDQYKDNAGEFSVEVYREADISAAAAAPFEDLTNFERDNWNNWQAGPAGHDLYLVDASTRAVEFITRPNKNHAGEILKKTLTGLTAGYEYTWTVKIARIIGKYEAPKVSLRADGKDISAPLELKQANEWVTLSGKFKATGSQAELAVVSHVSASMGNDFRIKELKIKG
notes: EclA (Enterobacter cloacae lectin A), E. cloacae subsp. cloacae ATCC 13047, ECL_04191, 283 aa, with M14A; Tag-free, pET22b; Made to have one protein species only (second ATG at codon 14 removed); also called EclA-L (M14A); source: E. coli, expressed and purified as reported for EclA
With B3 the “stoichiometry N” value [3] was 2.
